# Values of other authors as cited in article PMC6968775, “Assessment of contribution of BCRP to intestinal absorption of various drugs using portal‐systemic blood concentration difference model in mice” (Pharmacology Research & Perspectives, 2020).
# Details: human; cited from earlier work
smiles,measurement,value
"O=C(O)c1cn(C2CC2)c2cc(N3CCNCC3)c(F)cc2c1=O [ciprofloxacin, Ciprofloxacin]",oral BA in human,about 70%
